Measured values published in US5380713A, “Peptide aldehydes as antithrombotic agents” (Bristol-Myers Squibb Company, priority 1994, dated 1995).
Non-standard residues stand in square brackets, D forms with d. Residues, ends and D or L forms follow the SMILES beside them. *: point of attachment. Hydrocinnamoyl = O=C(CCc1ccccc1)*; PhAc = O=C(Cc1ccccc1)*; Bz = O=C(c1ccccc1)*

Assays:
[1] = system: thrombin clotting time; assay: Ex vivo clotting time prolongation after oral dosing of rats; format: in vivo, rat; conditions: rats dosed orally (p.o.), three per group; clotting time measured ex vivo
Protocol: Human citrated plasma obtained from human volunteers or citrated plasma obtained from dosed animals (prepared as described below). 25 NIH Units/ml human α-thrombin in thrombin buffer for use with rat plasma. 10 NIH Units/ml human α-thrombin in thrombin buffer for use with human plasma. Dosing: Test compound was prepared just prior to dosing. Routinely the drugs are dissolved in water. Occasionally other vehicles are used, such as PEQ-200 stock solutions are vortex mixed and animals are dosed p.o. using a 3 ml syringe with an 18-19 gauge oral gavage needle or i.p. injection. Blood Drawing for Rats: After the appropriate time period, the animals were ether-anesthetized, and blood was drawn by cardiac puncture using 333 μl of 3.8% sodium citrate per 3 ml blood. […] Clotting times were determined by pipetting 0.1 ml of Owren's buffer (pre-warmed to 37° C.) and 0.1 ml of human or rat plasma into yellow sample cuvettes. For studies with human plasma 10 U/ml human thrombin (10 ml) was placed in the reservoir assembly station of the MLA 700. (Medical Laboratory Automation, Electra 700 Reservoir Assembly). For rat studies, the human thrombin concentration was 25 U/ml. The cuvettes were vortexed and then placed on the MLA 700 sample wheel. The coagulation timer (MLA 700) automatically dispenses 0.1 ml human thrombin into the sample in each cuvette. Detection of the fibrin clot was determined optically by the MLA 700. In separate studies, compounds were dosed orally (p.o.) to three rats in each study group. […] Consequently, they are useful in controlling blood coagulation in mammals including humans.

[2] = target: T1, human thrombin (Homo sapiens, UniProt P00734); assay: Thrombin clotting time in pooled human plasma, initial effect before incubation; format: biochemical; conditions: 3.3 U/ml human thrombin, 37° C.
T1 construct: 10U/ml human thrombin
Protocol: Clotting times were measured optically using the Medical Laboratory Automation Electra 700 (MLA 700). Test cuvettes contained 0.1 ml of pre-warmed Owren's buffer, 0.1 ml of the human plasma and 1.2 and 3.0 μl of the test compounds dissolved in water. The cuvette was then vortex mixed and placed on the MLA 700 sample wheel. Clotting time was determined at 37° C. after the addition of 0.1 ml of 10U/ml human thrombin (final concentration=3.3 U/ml).

[3] = Clotting time after incubation of compound in water at 40° C. (stability); format: physicochemical; conditions: 50 μM stock in deionized water, 0.25-24 hours, FIG. 1
Protocol: CLOTTING TIME AFTER INCUBATION OF COMPOUND IN WATER AT 40° C.
Fresh blood was drawn from two human donors into vacutainer tubes containing buffered sodium citrate (16 mg sodium citrate and 2.1 mg citric acid per 4.5 ml of blood). The tubes were centrifugated immediately at 1920×g for 15 minutes to obtain fresh platelet poor plasma. The plasma was pooled and 10 ml aliquots were divided into three test tubes. Two tubes were frozen and maintained at -20° C. for future use and one tube was kept on ice throughout testing.
The compound of Example 14 and D-Phe-Pro-Arg aldehyde: H2 SO4 were prepared as stock solutions (50 μM) in deionized water. […] After the initial effect of these compounds on clotting time was determined, the compounds were placed in a 40° C. water bath for various time intervals (from 0.25-24 hours) and aliquots were withdrawn to determine the effect of the incubation on clotting time.
Clotting times were measured optically using the Medical Laboratory Automation Electra 700 (MLA 700). Test cuvettes contained 0.1 ml of pre-warmed Owren's buffer, 0.1 ml of the human plasma and 1.2 and 3.0 μl of the test compounds dissolved in water. […] Clotting time was determined at 37° C. after the addition of 0.1 ml of 10U/ml human thrombin (final concentration=3.3 U/ml).
The stability of the compounds of the present invention were measured or described in the biological procedures. […]

| SMILES | DTT [1] | final concentration which initially caused prolongation of clotting time to approximately three times control value [2] [µM] | stability in water (effect of incubation on clotting time) [3] |
| --- | --- | --- | --- |
| Cl.Cl.N=C(N)NCCC[C@@H](C=O)NC(=O)[C@@H]1CCCN1C(=O)CCc1cccnc1 [Example 8, N^α [N-(3-(3-Pyridyl)propanoyl)-L-Prolyl]-L-arginine aldehyde Dihydrochloride] | ~ 100 mg/kg |  |  |
| Cl.N=C(N)NCCC[C@@H](C=O)NC(=O)[C@@H]1CCCN1C(=O)c1ccccc1 [Example 9, Nα-[N-Benzoyl-L-prolyl]-L-arginine aldehyde Hydrochloride] (Bz-Pro-Arg-aldehyde) | 150 mg/kg |  |  |
| Cl.N=C(N)NCCC[C@@H](C=O)NC(=O)[C@@H]1CCCN1C(=O)Cc1ccccc1 [Example 12, N^α -[N-Phenylacetyl-L-prolyl]-L-arginine aldehyde Hydrochloride] (PhAc-Pro-Arg-aldehyde) | 100 mg/kg |  |  |
| Cl.N=C(N)NCCC[C@@H](C=O)NC(=O)[C@@H]1CCCN1C(=O)CCC1CCCCC1 [Example 13, N^α -[N-(3-Cyclohexylpropanoyl)-L-prolyl]-L-arginine aldehyde Hydrochloride] | 100 mg/kg |  |  |
| N=C(N)NCCC[C@@H](C=O)NC(=O)[C@@H]1CCCN1C(=O)[C@H](N)Cc1ccccc1 [D-Phe-Pro-Arg aldehyde, D-Phe-Pro-Arg aldehyde: H2 SO4, reference compound] |  | 0.5 |  |
| Cl.Cl.N=C(N)NCCC[C@@H](C=O)NC(=O)[C@@H]1CCCN1C(=O)[C@@H](Cc1ccccc1)NC(=O)CN [Example 16, N^α -[Glycl-D-phenylalanyl-L-prolyl]-L-arginine aldehyde Dihydrochloride] (H-G[dF]PR-aldehyde) | 50 mg/kg |  |  |
| Cl.N=C(N)NCCC[C@@H](C=O)NC(=O)[C@@H]1CCCN1C(=O)CCc1ccccc1 [Example 14, N^α -[N-(3-Phenylpropanoyl)-L-prolyl]-L-arginine aldehyde Hydrochloride] (Hydrocinnamoyl-Pro-Arg-aldehyde) | 60 mg/kg | 0.2 | more stable than the corresponding D-phe compound |
| C[C@H](NC(=O)[C@H](N)Cc1ccccc1)C(=O)N[C@H](C=O)CCCNC(=N)N.O=S(=O)(O)O [Example 19, N^α -[D-Phenylalanyl-L-alanyl]-L-arginine aldehyde Sulfate] (H-[dF]-Ala-Arg-aldehyde) | 110 mg/kg |  |  |
